Source: US11433081B2 (priority 2018, dated 2022)

System: Chronic Pain
Conditions: human, in vivo, po

With COc1ccc2c3c1O[C@H]1C(=O)CC[C@@]4(O)[C@@H](C2)N(C)CC[C@]314 [Oxycodone] as the compound, how does the Pain level read?
The Pain level was 3 /10.
